{"source": "patent US7476729B2", "about": "“Dbait and uses thereof” (Institut Curie, priority 2003, dated 2009)", "key": {"[1]": {"tested_on": "SK28 xenografted tumors", "assay": "Radiosensitization of SK28 melanoma xenografted on nude mice", "assay_type": "in vivo", "conditions": "SK, 6 × 5 Gy, 6 × 60 μg (3 nmole); for Relative risk: reference C* (Mock + irradiation)", "description": "The protocol of Hep2 was described in FIG. 4.3. Other tumors were treated by a modified protocol where a 5 Gy fractionated irradiation was applied in three consecutive days, and followed four day rest, and the treatment was repeated once. The total irradiation dose (6×5 Gy) is equal to that of the protocol used to treat Hep2 tumor (15×2 Gy).\nDescriptive analyses of the tumor response were performed for each treatment and each tumor type. Day 1 was the day of the first treatment session. […] Median lifetime was estimated according to the Kaplan-Meier method. TGD was calculated by subtracting the mean tumor volume quadrupling time of the control group from tumor volume quadrupling times of individual mice in each treated group. The mean TGD was calculated for each treated group using the individual measurements.\nThe analysis used S-Plus 6.2 version software (MathSoft Inc., Seattle, Wash.) and statEL (ad Science, Paris, France). A global Log Rank was first performed for each group with a same tumor type. Then treatments with Dbait were compared to the mock-treated control. All tests were considered significant at the 0.05 significance level."}, "[2]": {"tested_on": "Hep2 xenografted tumors", "assay": "Radiosensitization of Hep2 (HNSCC) tumors xenografted on nude mice", "assay_type": "in vivo", "set-up": "Mean TGD: unit not given here", "description": "In vivo activity of Dbait molecules in association with radiotherapy was assessed by using nude mice xenografted with human tumors by subcutaneous injection of radio-resistant cell lines (Hep2 derived from head and neck squmous cell carcinoma, HNSCC) or tumor fragments (previously obtained by subcutaneous injection of the U87 cell lines derived of glioblastoma).\nInvestigations were mainly carried out on the mice xenografted with radio-resistant human HNSCC tumors in order to establish proof of concept in vivo. Irradiation was performed with γ-rays from a ^137Cs source with appropriate protection of mice in order to perform localized irradiation of tumors. Typical assay condition consists of intratumoral injection of an appropriate preparation of 1 nmole Dbait molecules with transfecting agents (cationic dendrimer (Superefct, Qiagene), dioctadecylamidoglycyl-spermine (DOGS, Polyplus transfection), polyethyleneimine (PEI, Polyplus Transfection) according to manufacturer's instruction, 5 hours prior irradiation. A total dose of 30 Gy was delivered in 5 weeks: i) 3×2 Gy/week (about one every two days); ii) 5 Gy/week; iii) 15 Gy/2 weeks.\nThe size of tumor was measured 2-3 times a week. Treatment by irradiation and intratumoral injection of MEM medium (the Dbait dilution buffer), was used as a control of irradiation treatment without Dbait. The volume of tumor was calculated ([…], where a=length, b=width). The ratio of volume measured at t time over the initial volume (Vt/Vi) was used as indicator of tumor progression. The mice were followed up to 100 days. At least 4 independent series of six animals were tested.\nMEM or Dbait32H (SEQ ID NO: 1) was delivered by intratumoral injection 5 hours prior irradiation. The fractionated irradiation dose (2 Gy) was given one of every two days, three times a week. The treatment lasted 5 weeks totaling 30 Gy irradiation. The dots represent the time course of tumor volume of each mouse. The solid lines are the best polynomial fitting.\nTumor growth was monitored during treatment and after in four groups of 10 animals with different treatments (untreated, treated with Dbait32H (SEQ ID NO: 1) alone, treated by irradiation alone, and the combined Dbait32H (SEQ ID NO: 1) and irradiation). Individual tumor growth is indicated for each animal. The treatment protocol was the same as described in FIG. 4.1. The experiment started when the volume of Hep2 tumors reached 150-200 mm^3. For each treatment session, 20 μg Dbait32H (SEQ ID NO: 1) formulated with polyethyleneimine (PEI, Polyplus Transfection, Strasbourg, France) according to the manufacturer's instruction was injected into tumor 5 hours prior 2 Gy irradiation.\nFor ethical reason, the animals were sacrificed when their tumors reached 2 cm^3. This end-point was used as death in survival analysis. The treatment protocol was described in FIG. 4.3. The five groups were included: untreated, mock-tranfected and irradiated, treated by combined irradiation and increasing amount of Dbait32H (SEQ ID NO: 1) (20, 60 and 120 μg/session). […] Pictures of tumors representative of the groups (untreated, treated with 20 and 60 μg Dbait32H/session associated with 2 Gy irradiation) which were taken 15 days after beginning of treatment, at the end of treatment (35 days) and 13 days after the end of treatment (35+13 days). They provided clear visual comparison of the benefit of the combined Dbait32H (SEQ ID NO: 1) and irradiation treatment.\nDescriptive analyses of the tumor response were performed for each treatment and each tumor type. Day 1 was the day of the first treatment session. All the animals were followed for at least 150 days or until their ethical sacrifice. Median lifetime was estimated according to the Kaplan-Meier method. TGD was calculated by subtracting the mean tumor volume quadrupling time of the control group from tumor volume quadrupling times of individual mice in each treated group. […]"}, "[3]": {"conditions": "Hep2, 15 × 2 Gy, 15 × 20 μg (1 nmole)"}, "[4]": {"conditions": "Hep2, 15 × 2 Gy, 15 × 60 μg (3 nmole)"}, "[5]": {"conditions": "Hep2, 15 × 2 Gy, 15 × 120 μg (6 nmole)"}, "[6]": {"conditions": "Hep2, no irradiation, 15 × 20 μg (1 nmole)"}, "[7]": {"conditions": "Hep2, 15 × 2 Gy, 15 × 120 μg (12 nmole)"}, "[8]": {"conditions": "Hep2, no irradiation, 15 × 120 μg (12 nmole)"}}, "data": [{"substance": "Dbait8H: hairpin double strand DNA with a stem of 8-bp (DNA ACGCACGG; DNA, backbone not given here; hairpin, hexaethyleneglycol loop, 3-bp phosphorothioate at free blunt end)", "values": [{"measurement": "Mean % TGD", "setting": "[1]", "result": 194, "unit": "%"}, {"measurement": "Mean TGD", "setting": "[1]", "result": 19}, {"measurement": "Median survival time", "setting": "[1]", "result": 76, "unit": "days"}, {"measurement": "Relative risk", "setting": "[1]", "result": 0.68}]}, {"substance": "Dbait32H: hairpin double strand DNA with a stem of 32-bp, hexaethyleneglycol linker, phosphorothioate at the free blunt end (DNA ACGCACGGGTGTTGGGTCGTTTGTTCGGATCT; DNA, backbone not given here; hairpin, hexaethyleneglycol loop, 3-bp phosphorothioate at free blunt end)", "values": [{"measurement": "Mean % TGD", "setting": "[1]", "result": 422, "unit": "%"}, {"measurement": "Mean TGD", "setting": "[1]", "result": 64}, {"measurement": "Median survival time", "setting": "[1]", "result": 176, "unit": "days"}, {"measurement": "Number of cured mice", "setting": "[1]", "result": 2}, {"measurement": "Relative risk", "setting": "[1]", "result": 0.22}, {"measurement": "radiosensitization, tumor growth (Vt/Vi)", "setting": "[2]; 1 nmole (20 μg) intratumoral 5 hours prior irradiation, 3×2 Gy/week, 5 weeks, versus MEM+3×2 Gy", "result": "clearly showed radiosensitization"}, {"measurement": "tumor growth", "setting": "[2]; 20 μg with PEI intratumoral 5 hours prior 2 Gy, 15 sessions, versus irradiation or Dbait32H alone", "result": "greatly reduced"}, {"measurement": "survival (Kaplan-Meier), dose dependence", "setting": "[2]; 20, 60 and 120 μg/session with 2 Gy irradiation", "result": "clear dose-dependent effect"}, {"measurement": "Mean % TGD", "setting": "[2]; [3]", "result": 561, "unit": "%"}, {"measurement": "Mean TGD", "setting": "[2]; [3]", "result": 49}, {"measurement": "Median survival time", "setting": "[2]; [3]", "result": 93, "unit": "days"}, {"measurement": "Relative risk", "setting": "[2]; Hep2, 15 × 2 Gy, 15 × 20 μg (1 nmole), reference C* (Mock + irradiation)", "result": 0.42}, {"measurement": "Mean % TGD", "setting": "[2]; [4]", "result": 880, "unit": "%"}, {"measurement": "Mean TGD", "setting": "[2]; [4]", "result": ">83"}, {"measurement": "Median survival time", "setting": "[2]; [4]", "result": 129, "unit": "days"}, {"measurement": "Number of cured mice", "setting": "[2]; [4]", "result": 3}, {"measurement": "Relative risk", "setting": "[2]; Hep2, 15 × 2 Gy, 15 × 60 μg (3 nmole), reference C* (Mock + irradiation)", "result": 0.28}, {"measurement": "Mean % TGD", "setting": "[2]; [5]", "result": 952, "unit": "%"}, {"measurement": "Mean TGD", "setting": "[2]; [5]", "result": ">91"}, {"measurement": "Median survival time", "setting": "[2]; [5]", "result": 150, "unit": "days"}, {"measurement": "Number of cured mice", "setting": "[2]; [5]", "result": 4}, {"measurement": "Relative risk", "setting": "[2]; Hep2, 15 × 2 Gy, 15 × 120 μg (6 nmole), reference C* (Mock + irradiation)", "result": 0.18}, {"measurement": "Mean % TGD", "setting": "[2]; [6]", "result": 168, "unit": "%"}, {"measurement": "Mean TGD", "setting": "[2]; [6]", "result": 7}, {"measurement": "Median survival time", "setting": "[2]; [6]", "result": 55, "unit": "days"}, {"measurement": "Relative risk", "setting": "[2]; Hep2, no irradiation, 15 × 20 μg (1 nmole), reference C (untreated)", "result": 0.62}, {"measurement": "NMR imaging: necrotic area", "setting": "[2]; mid-course (7 sessions), 20 μg/session and 2 Gy/session versus irradiation alone", "result": "necrotic area was more important"}, {"measurement": "histology: necrosis and apoptosis", "setting": "[2]; mid-course treatment (7 sessions), 20 days, combined with irradiation versus irradiation alone", "result": "enhancement of necrosis and apoptosis was observed"}, {"measurement": "radiosensitization depending on dwell time between intratumoral injection and ionizing radiation", "setting": "[2]; xenografted tumors on nude mice", "result": 5, "unit": "hours>>1 hour"}]}, {"substance": "Dbait32ss: 32-nt single strand DNA (SEQ ID NO: 1) (DNA ACGCACGGGTGTTGGGTCGTTTGTTCGGATCT; DNA, backbone not given here)", "values": [{"measurement": "Mean % TGD", "setting": "[2]; [7]", "result": 374, "unit": "%"}, {"measurement": "Mean TGD", "setting": "[2]; [7]", "result": 29}, {"measurement": "Median survival time", "setting": "[2]; [7]", "result": 80, "unit": "days"}, {"measurement": "Relative risk", "setting": "[2]; Hep2, 15 × 2 Gy, 15 × 120 μg (12 nmole), reference C* (Mock + irradiation)", "result": 0.57}, {"measurement": "Mean % TGD", "setting": "[2]; [8]", "result": 156, "unit": "%"}, {"measurement": "Mean TGD", "setting": "[2]; [8]", "result": 6}, {"measurement": "Median survival time", "setting": "[2]; [8]", "result": 46, "unit": "days"}, {"measurement": "Relative risk", "setting": "[2]; Hep2, no irradiation, 15 × 120 μg (12 nmole), reference C (untreated)", "result": 0.71}, {"measurement": "in vivo activity (survival of xenografted animals)", "setting": "[2]; high dose (15 × 120 μg)", "result": "inactive"}]}]}
